In ChEMBL document CHEMBL3120155, “4,4'-Diaminodiphenyl ether derivatives: synthesis, spectral, optical, thermal characterization and in-vitro cytotoxicity against Hep 3B and IMR 32 human cell lines” (Eur J Med Chem, 2014) one finds Activity and IC50 data, which are given here for eight compounds.

Converted amounts (≈) assume the structure as drawn. The source made the active and inactive calls. The rule behind the calls is not given here.

The subject of experiment [1] is IMR-32. Kind of experiment: Induction of apoptosis in human IMR32 cells assessed as DNA fragmentation at IC50 after 6 hrs by agarose gel electrophoresis. The experiment is classed as functional, cell-based.
The subject of experiment [2] is Hep 3B2. The experiment in a line: Induction of apoptosis in human Hep3B cells assessed as DNA fragmentation at IC50 after 6 hrs by agarose gel electrophoresis. In kind it is functional, cell-based.
Experiment [3] in a line: Cytotoxicity against human Hep3B cells after 6 hrs by MTT assay. In kind it is functional, cell-based, Hep 3B2. For orientation: Formazan colour is commonly taken as a measure of viable cells.
A short description of experiment [4]: Cytotoxicity against human IMR32 cells after 6 hrs by MTT assay. The note with it: IMR-32, 6 h. The experiment is classed as functional, cell-based.
The test system of experiment [5] is IMR-32. Kind of experiment: Induction of apoptosis in human IMR32 cells assessed as cell shrinkage at IC50 after 6 hrs by microscopic analysis. In kind it is functional, cell-based.
Experiment [6] has as its system Hep 3B2. The experiment in a line: Induction of apoptosis in human Hep3B cells assessed as cell shrinkage at IC50 after 6 hrs by microscopic analysis. The experiment is classed as functional, cell-based.

As to `c1ccc(CNc2ccc(Oc3ccc(NCc4ccccc4)cc3)cc2)cc1`, the outcome in experiment [1] and in experiment [2] was Active. In addition, the concentration for half-maximal inhibition (IC50) (in general, the concentration that inhibits the measured activity by half) in experiment [3] amounted to 28.2 µg/mL (≈ 74.1 µM); in experiment [4] it was 31.9 µg/mL (≈ 83.9 µM).

As for `C(=N\c1ccc(Oc2ccc(/N=C/c3c4ccccc4cc4ccccc34)cc2)cc1)/c1c2ccccc2cc2ccccc12`, the IC50 in experiment [3] is 59.6 µg/mL (≈ 103 µM); in experiment [4] it was 50.3 µg/mL (≈ 87.3 µM).

In the case of `C(=N\c1ccc(Oc2ccc(/N=C/c3cccc4ccccc34)cc2)cc1)/c1cccc2ccccc12`, the outcome in experiment [1], in experiment [2], in experiment [5] and in experiment [6] was Active. Moreover, the results for the IC50 in experiment [3] and in experiment [4] were 14.1 µg/mL (≈ 29.6 µM) and 33.5 µg/mL (≈ 70.3 µM), respectively.

As for `C(=N\c1ccc(Oc2ccc(/N=C/c3cc4ccccc4c4ccccc34)cc2)cc1)/c1cc2ccccc2c2ccccc12`, the half-inhibitory concentration (IC50) in experiment [3] came out at 44.7 µg/mL (≈ 77.5 µM); in experiment [4], 63.1 µg/mL (≈ 109 µM).

For `c1ccc2c(CNc3ccc(Oc4ccc(NCc5c6ccccc6cc6ccccc56)cc4)cc3)c3ccccc3cc2c1`, the values for the half-maximal inhibitory concentration (IC50) in experiment [3] and in experiment [4] were 50.1 µg/mL (≈ 86.3 µM) and 65 µg/mL (≈ 112 µM), respectively.

`c1ccc2c(CNc3ccc(Oc4ccc(NCc5cccc6ccccc56)cc4)cc3)cccc2c1`: the half-maximal inhibitory concentration (IC50) in experiment [3] and in experiment [4] was 89.1 µg/mL (≈ 185 µM) each time.

`C(=N\c1ccc(Oc2ccc(/N=C/c3ccccc3)cc2)cc1)/c1ccccc1`: the IC50 in experiment [3] was determined as 29.8 µg/mL (≈ 79.3 µM); in experiment [4] it was 42.9 µg/mL (≈ 114 µM).

As to `Nc1ccc(Oc2ccc(N)cc2)cc1`, the figures for the half-inhibitory concentration (IC50) in experiment [3] and in experiment [4] were 83.2 µg/mL (≈ 415 µM) and 54.5 µg/mL (≈ 272 µM), respectively.
